According to patent publication US8673979B2, “Pharmaceutical compositions for headache, migraine, nausea and emesis” (Meditor Pharmaceuticals Ltd., priority 2000, dated 2014):

Tests used:
[1] = test system: emesis during migraine attack; test: Difetur tablets: emesis/nausea treatment during migraine attack; assay type: in vivo, human
Procedure: (§1) The purpose of following exploratory protocol is to evaluate the safety and potential efficacy of Difetur (S-ethylisothiouronium diethylphosphate) tablets, in escalating doses starting at 10 mg and up to 50 mg, in the treatment of a single acute migraine attack. The study was designed as an open study in a selected population of subjects classified according to IHS criteria as suffering from migraine headaches of moderate or severe intensity, without aura. The study was conducted according to established international criteria for evaluating safety and efficacy for migraine treatment.
(§2) The study was performed as a 5 arm (groups) study. Only female patients classified as suffering from migraine without aura, according to IHS criteria are enrolled in the study. Each group consists of ten migraine patients who are treated during an acute migraine attack with Difetur tablets in a hospital setting. The initial dose of Difetur is 10 mg (1 tablet), consequently increasing to 20 mg, 30 mg, 40 mg, and 50 mg. The total number of patients to be enrolled is 50. The patients are hospitalized and followed for at least 4 hours to assess the safety, efficacy and possible side effects of Difetur.
4.2 Secondary Efficacy Targets are the Reduction of Nausea, Vomiting and Light And Sound Sensitivity.
These are assigned for their presence, absence or disappearance as documented by the patient.

[2] = test system: acute migraine attack (headache); test: Dose escalating exploratory study of Difetur tablets for acute migraine attack: headache reduction; assay type: in vivo, human; settings: for Percentage of Patients Benefited by Treatment: headache grade 3-4 reduced to 1-2; for Time elapsed to Effect: time after ingestion to headache grade 1-2
Procedure: Dose escalating exploratory study on the safety and efficacy of Difetur tablets for the treatment of acute migraine attack.
as §1, §2
In the first group of 10 patients each receive the initial dose of 10 mg of the study medication in a single tablet form. The dose of 50 mg is given as two tablets of 25 mg each. The tablets are individually packed in blister package, and have a label identifying the study medication as an investigational drug. Each dose in an escalating manner is given to 10 patients. The medication is swallowed with a glass of water under the supervision of an attending physician.
Headache severity is graded verbally in a 4-points scale: severe (grade 4), moderate (grade 3), mild (grade 2), or no pain (grade 1). Success is considered as a reduction of the headache severity from a severe or moderate headache (grade 3-4) to mild or no pain (grade 1-2).

migraine attack = test: Case reports: oral tablets during migraine attacks; assay type: in vivo, human; settings: for Side effects of past medical treatment: in vivo
Procedure: Previous medical history: The subject is a smoking person first diagnosed as a classical migraine sufferer. Except for this they are completely healthy. Until two years ago the frequency of the migraine attacks was seven episodes per month. During the last two years they were treated with different kinds of recognized medications, with little or no success. Due to lack of response to the medical treatment during the migraine attacks, they tried alternative medicine treatments.
First attack: The subject suffered an acute migraine attack that lasted 72 hours. […] On the next day the subject received a single dose of 50 mg S-ethylisothiouronium diethylphosphate (2 tablets of 25 mg each). […] Between 10 to 15 minutes following administration the pain abruptly disappeared, as did all other symptoms, which appeared during the migraine attack.
Second attack: (three weeks later) The second migraine attack started during the night. On the next day the subject received once again 2 tablets of S-ethylisothiouronium diethylphosphate (50 mg). This time the intake of the tablets was during the peak of the migraine attack, after having a meal. Within 20 minutes the headache was relieved, the subject was able to focus their eyesight, and the photophobia disappeared. There was a weak headache but its intensity was reduced. Three hours later the subject took two more tablets of S-ethylisothiouronium diethylphosphate (50 mg). Within 15 minutes the migraine pain disappeared.
Third attack: (two and a half weeks after the second attack) the migraine attack started on their way to work. An hour after onset within the peak of the migraine attack, the subject received 2 tablets of S-ethylisothiouronium diethylphosphate (each of 25 mg). Drug was taken on empty stomach. Within 11 minutes the migraine symptoms disappeared.
Previous Medical History: The subject is a non-smoking person suffering from migraine attacks during the last two years. The frequency of the migraine attacks is once a month before the menstruation period. The pain appears in the temples, the sinuses and spreads down to the lower jaw. The duration of the photophobia was about 48 hours. So far the subject has not applied to receive specific medical treatment and used to take conventional analgesic drugs.
First attack: The onset of an acute migraine attack was in the morning and the symptoms grew stronger during the day. Just before noon time the subject received one tablet of S-ethylisothiouronium diethylphosphate (25 mg). […] Two hours later the subject received 2 more tablets of S-ethylisothiouronium diethylphosphate (each of 25 mg). Ten minutes later, the migraine pain disappeared.
Second attack: (about four weeks after the first attack) The migraine attack started as a consequence of very hot weather conditions. The intensity of this attack was greater than the usual migraine attacks. In the morning, the subject received 2 tablets of S-ethylisothiouronium diethylphosphate (50 mg) that were taken on an empty stomach. Within 20 minutes of S-ethylisothiouronium diethylphosphate intake there was a significant relief in migraine pain. Fifteen minutes later the pain disappeared. Later that day, during the afternoon, the subject suffered a weak pain. This time the subject self administered analgesic drugs and the pain disappeared.

[3] = test system: acute migraine attack (headache); test: Clinical trial of intravenous Difetur 10% solution in acute migraine attack; assay type: in vivo, human; settings: for Percentage of Patients Benefited by Treatment / Mean time elapsed to Effect: 0.6 mg/kg IV drip; for Mean time elapsed to Effect: to grade 1-0
Procedure: as §1, with “protocol was” for “protocol is”, “Difetur 10% solution for injection,” for “Difetur (S-ethylisothiouronium diethylphosphate) tablets,”, “in dose 0.6 mg/kg,” for “in escalating doses starting at 10 mg and up to 50 mg,”, “in” for “in the”
Difetur was presented as 10% (100 mg/mL) solution in 1 mL ampoules. It was dissolved in 100 mL of saline solution in intravenous device before treatment. The dose of Difetur was 0.6 mg/kg, given by intravenous drip during 10 min.
Headache severity was graded verbally on a 5-point scale: very severe (grade 4), severe (grade 3), moderate (grade 2), mild (grade 1), no pain (grade 0). Success was considered as reduction of the headache severity from very severe, severe or moderate (grade 4-2) to mild or no pain (grade 1-0).

[4] = therapeutic doses; cited from earlier work
[5] = Case 2, second attack, 50 mg oral, empty stomach

## S-ethylisothiouronium diethylphosphate [Difetur]
[1]; 10 mg oral
  Percentage of Patients Affected by Treatment (positive anti-emetic response): 70%
  Time elapsed until Effect (termination of emesis): 28 min
[1]; 20 mg oral
  Percentage of Patients Affected by Treatment (positive anti-emetic response): 100%
  Time elapsed until Effect (termination of emesis): 25 min
[1]; 30 mg oral
  Percentage of Patients Affected by Treatment (positive anti-emetic response): 100%
  Time elapsed until Effect (termination of emesis): 29 min
[1]; low doses ineffective or less effective on headache
  Effect of low doses on nausea: effective at reducing or abolishing the symptoms of nausea
[2]; 10 mg oral tablet
  Percentage of Patients Benefited by Treatment: 0%
[2]; 20 mg oral
  Percentage of Patients Benefited by Treatment: 70%
  Time elapsed to Effect: 43 min
[2]; 30 mg oral
  Percentage of Patients Benefited by Treatment: 70%
  Time elapsed to Effect: 58 min
[2]; clinical trials, human subjects
  Side effects: no side effects
[2]; in some cases
  Time to dramatic improvement: ≤ 15 min
[2]; oral, at peak of migraine attack
  Time to reduction of migraine symptoms, on average: around 45 minutes
[2]; treatment initiated at peak of migraine attack
  Time to relief: ≤ 60 min
Migraine attack; Case 1, 50 mg oral
  Side effects: No side effects
Migraine attack; Case 1, second attack, 50 mg oral, after a meal
  Time to headache relief: ≤ 20 min
Migraine attack; Case 1, second attack, further 50 mg three hours later
  Time to disappearance of migraine pain: ≤ 15 min
Migraine attack; Case 1, third attack, 50 mg oral, empty stomach
  Time to disappearance of migraine symptoms: ≤ 11 min
Migraine attack; Case 1, previously seven episodes per month
  Frequency of migraine attacks after treatment: about three
Migraine attack; Case 2, 25 or 50 mg oral
  Side effects: No side effects
Migraine attack; Case 2, first attack, 2 more 25 mg tablets two hours later
  Time to disappearance of migraine pain: Ten
Migraine attack; Case 2, first attack, one 25 mg tablet
  Change in migraine pain: No substantial change
Migraine attack; [5]
  Time from significant relief to disappearance of pain: Fifteen
  Time to significant relief in migraine pain: ≤ 20 min
Migraine attack; both case reports, at peak of attack
  Time to elimination of migraine symptoms: less than 20 minutes
Migraine attack; case reports
  Headache recurrence (rebound/relapse): not observed
[3]; headache grade 2
  Percentage of Patients Benefited by Treatment: 87%
  Mean time elapsed to Effect: 13.7 min
[3]; headache grade 3
  Percentage of Patients Benefited by Treatment: 100%
  Mean time elapsed to Effect: 25.5 min
[3]; headache grade 4
  Percentage of Patients Benefited by Treatment: 100%
  Mean time elapsed to Effect: 50 min
[3]; 0.6 mg/kg IV, 13 patients, all except one
  Headache relief, overall: significant headache relief

## CN1C[C@H](C(=O)N[C@]2(C)O[C@@]3(O)[C@@H]4CCCN4C(=O)[C@H](Cc4ccccc4)N3C2=O)C=C2c3cccc4[nH]cc(c34)C[C@H]21 [ergotamine]
[4]
  Patients with nausea and vomiting: up to 10%

## CN(C)CCc1c[nH]c2ccc(C[C@H]3COC(=O)N3)cc12 [Zomig, reference compound]
Migraine attack
  Side effects of past medical treatment: various strong side effects

## CNS(=O)(=O)Cc1ccc2[nH]cc(CCN(C)C)c2c1 [Imitrex, Sumatriptan succinate, reference compound]
Migraine attack
  Side effects of past medical treatment: various strong side effects
